Test results from patent US9422262B2, “Compounds and methods for treating diseases mediated by protease activated receptors” (The Broad Institute, Inc., priority 2010, dated 2016).
Where “and” joins values, the source holds several entries; their conditions need not be identical. Equal values may be shown once.

Key:
[1] = molecular target: T1, Par1 (thrombin) receptor (Homo sapiens, UniProt P25116); experiment: SFLLRN-mediated granule secretion, platelet-rich plasma, luciferin-luciferase ATP readout (primary assay); type: cell-based; conditions: two retests of the probe; platelet-rich plasma; read-out: IC50, SFLLRN-mediated granule secretion
T1 construct: endogenous in cells; host or cells: platelets (platelet-rich plasma; washed platelets from individual donors)
T1 sequence (P25116 22-425): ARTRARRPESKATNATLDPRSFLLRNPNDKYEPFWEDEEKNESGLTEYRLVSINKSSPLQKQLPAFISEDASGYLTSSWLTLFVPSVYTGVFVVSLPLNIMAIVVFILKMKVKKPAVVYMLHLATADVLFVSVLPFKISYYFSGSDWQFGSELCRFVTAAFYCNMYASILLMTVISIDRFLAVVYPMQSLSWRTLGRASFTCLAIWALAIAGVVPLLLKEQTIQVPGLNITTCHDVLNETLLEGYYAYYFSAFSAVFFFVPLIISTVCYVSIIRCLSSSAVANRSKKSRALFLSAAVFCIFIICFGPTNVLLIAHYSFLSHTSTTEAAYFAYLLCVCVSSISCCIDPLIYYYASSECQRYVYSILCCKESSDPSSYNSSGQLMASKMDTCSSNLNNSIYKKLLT
Experimental: The compounds were tested in two independent IC50 determination experiments using the primary assay measuring SFLLRN-mediated granule secretion. For this assay, platelet-rich plasma is treated with putative inhibitors prior to activation by the SFLLRN peptide, which targets the Par1 (thrombin) receptor. Upon activation, platelets secrete dense granules, which are concentrated with ATP. Platelet activation and possible inhibition are monitored by a luciferin-luciferase assay (CellTiter-Glo without lysis reagent) to measure the ATP secreted from activated platelets. Luminescence measurements are made using a plate reader (Envision, PerkinElmer) capable of detecting luminescence.

[2] = tested on: cAMP production; experiment: cAMP production in washed platelets (competitive immunoassay); type: cell-based, human; conditions: 10 μM, PGE1 as control
Experimental: For this assay, platelets obtained from individual donors were washed and incubated with the probe. Platelets exposed to PGE1 (which causes elevation of platelet cAMP levels) are used as controls. Following incubation, platelets are lysed and evaluated in a commercially available competitive immunoassay of cAMP. Compounds that raise cAMP levels less than 50% of that of PGE1 are considered negative in this assay.

[3] = tested on: platelets; experiment: PMA- or Ca2+ ionophore-induced platelet activation (P-selectin, flow cytometry); type: cell-based, human; conditions: washed platelets, 6 point dose curve
Experimental: For these assays, the probe is incubated with washed platelets obtained from individual donors in a 6 point dose curve. Platelets are subsequently stimulated with either PMA or Ca2+ ionophore. After 15 minutes, phycoerythrin-labeled anti-P-selectin antibody (BD Biosciences) is added to the incubation mixture. Following a 20-minute incubation, a sample is analyzed by flow cytometry for staining of P-selectin.

[4] = tested on: platelets; experiment: P-selectin surface expression on platelets activated with other platelet agonists; type: cell-based, human; conditions: FIG. 1A
Experimental: (§1) To confirm the specificity of compound 1 for PAR1, platelets were incubated with compound 1 and subsequently activated with a variety of platelet agonists. P-selectin surface expression was monitored to detect platelet activation. […] In contrast, an IC50 for inhibition of other agonists was not reached even at concentrations >30-fold its IC50 for PAR1-mediated secretion. To further evaluate whether PAR1 is the target of compound 1, we tested the ability of the compound to inhibit Ca^2+ flux in HEK293 cells overexpressing recombinant PAR1.

[5] = molecular target: T2, PAR4 (Homo sapiens, UniProt Q96RI0); experiment: Platelet activation induced through PAR4; type: cell-based; conditions: FIG. 1A
T2 construct: endogenous in cells; host or cells: platelets
T2 sequence (Q96RI0 18-385): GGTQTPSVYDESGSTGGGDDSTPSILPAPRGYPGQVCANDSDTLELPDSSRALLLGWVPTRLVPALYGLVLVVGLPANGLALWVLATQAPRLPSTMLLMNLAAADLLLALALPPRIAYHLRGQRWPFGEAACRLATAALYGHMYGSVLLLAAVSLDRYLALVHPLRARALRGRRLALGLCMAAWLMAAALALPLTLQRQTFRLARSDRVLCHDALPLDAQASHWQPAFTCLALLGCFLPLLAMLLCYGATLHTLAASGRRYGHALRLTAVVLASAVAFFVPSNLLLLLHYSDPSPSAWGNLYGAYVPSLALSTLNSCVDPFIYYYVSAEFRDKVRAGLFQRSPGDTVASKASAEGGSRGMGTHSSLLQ
Experimental: as §1

[6] = tested on: Gα12 signaling downstream of PAR1; experiment: PAR1-mediated transmembrane resistance (TER) in MDCK cells overexpressing Gα12; type: cell-based; conditions: FIG. 3B
Source text: This pattern of inhibition is consistent with that of an allosteric inhibitor. […] This observation raised the possibility that compound 1 blocks PAR1 signaling through Gαq (which mediates platelet aggregation downstream of PAR1), but not Gα12/13 (which mediates shape change downstream of PAR1). A previously identified PAR1 inhibitor, 3,5-difluoro aminoisoxazole (3,5-DFAI), inhibited both shape change and aggregation. Shape change that occurred in the presence of compound 1 was blocked by the Rho kinase inhibitor Y27632, confirming participation of Rho kinase downstream of Gα12/13 in compound-1-resistance shape change (FIG. 3A). […] PAR1-mediated decrease in TER in these cells is dependent on Gα12. […] In contrast, 3,5-DFAI inhibited SFLLRN-mediated decrease in TER (FIG. 3B) and compound 1 inhibited Gαq-mediated Ca^2+ flux in these MDCK cells (FIG. 3C).

[7] = Stability in mouse plasma; type: in vitro ADME
Source text: Since there are also situations in which longer term anticoagulation is desired, we performed further studies in the thrombus formation model to assess analogs of compound 1 that may have a more long-lived effect. […] This instability in mouse plasma may have contributed to its short half-life of efficacy in vivo.

IC50 [1]: 4.87 µM and 5.28 µM
concentration tested without reaching an IC50 for other agonists, relative to IC50 for PAR1-mediated secretion [4]: > 30 fold
IC50 for inhibition of other agonists ([4]; P-selectin surface expression): not reached
platelet activation through PAR4 [5]: without inhibiting
remaining after 5 hour incubation in mouse plasma [7]: 1.7%
Compound: CCCC(=O)Nc1cccc(NC(=O)c2ccccc2Br)c1 [Compound 1]
modulation of cAMP production [2]: inactivity
effect on Ca2+ ionophore-induced activation of platelets [3]: did not show any effect
effect on PMA-induced activation of platelets [3]: did not show any effect
PAR1-mediated (SFLLRN) change in TER [6]: failed to inhibit
